# Patent publication US11753407B2, “Compounds for treating spinal muscular atrophy” (PTC Therapeutics, Inc., priority 2012, dated 2023)
# Key:
# [1] = tested on: SMN2 minigene mRNA (SMN2-A minigene) in HEK293H cells; experiment: SMN2 minigene mRNA splicing RT-qPCR assay in cultured cells; assay type: cell-based, human; details: Homo sapiens, HEK293-H; concentration increasing full length SMN2 mRNA 1.5-fold relative to vehicle-treated cells; HEK293H cells with SMN2-A minigene, 24 hours, 7-point concentration data; read-out: EC1.5x for production of full length SMN2 mRNA
# Procedure, shortened: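 EC1.5× = concentration raising full-length SMN2 minigene mRNA 1.5-fold over vehicle, from 7-point curves in duplicate. Stably transfected HEK293H cells exposed 24 h at 37 °C; lysates assayed by multiplex RT-qPCR, minigene FL signal normalized to GAPDH via modified ΔΔCt.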
# [2] = tested on: Smn protein in SMA patient fibroblast cells (GM03813); experiment: Smn protein assay in cultured cells (SMN HTRF); assay type: cell-based, human; details: SMA patient fibroblast cells, 48 hours; for maximum fold (Fold) increase of Smn protein: 7-point concentration data, fold relative to vehicle control; for EC1.5x for Smn protein expression: 7-point concentration curve, SMN HTRF, concentration producing 1.5 times Smn protein vs DMSO vehicle control
# Procedure, shortened: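 Smn protein quantified by HTRF with anti-SMN d2/kryptate pair, 665/620 nm ratio blank-corrected, in RIPA lysates of GM03813 fibroblasts after 48 h compound exposure (7 concentrations, 3.16-fold steps, triplicates). Values: concentration producing 1.5× vehicle Smn level, and maximal fold increase.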
Structure (SMILES),EC (1.5-fold increase) [1],maximum fold (Fold) increase of Smn protein [2],EC1.5x for Smn protein expression [2]
"COc1ccc(-c2cc(=O)n3cc(N4CCNC[C@H]4C)ccc3n2)cc1OC [Compound 321, 2-(3,4-dimethoxyphenyl)-7-[(2R)-2-methylpiperazin-1-yl]-4H-pyrido[1,2-a]pyrimidin-4-one]",1 to 3 µM,*** (a fold increase between >1.35 and ≤1.5 is indicated by three stars (***)),
"Cc1nc2ccc(-c3cc(=O)n4cc(N5CCN(C)CC5)ccc4c3)cc2o1 [Compound 323, 2-(2-methyl-1,3-benzoxazol-6-yl)-7-(4-methylpiperazin-1-yl)-4H-quinolizin-4-one]",0.1 to 0.3 µM,*** (a fold increase between >1.35 and ≤1.5 is indicated by three stars (***)),** (an EC1.5× between >1 μM and ≤3 μM is indicated by two stars (**))
"Cc1cn2nc(-c3cc(=O)n4cc(N5CCN[C@H](C)C5)ccc4n3)cc2c(C)n1 [Compound 335, 2-(4,6-dimethylpyrazolo[1,5-a]pyrazin-2-yl)-7-[(3R)-3-methylpiperazin-1-yl]-4H-pyrido[1,2-a]pyrimidin-4-one]",< 0.1 µM,***** (a fold increase >1.65 is indicated by five stars (*****)),**** (an EC1.5x≤0.3 μM is indicated by four stars (****))
"CCN1CCN(c2ccc3nc(-c4cc5c(C)nc(C)cn5n4)cc(=O)n3c2)C[C@H]1C [Compound 343, 2-(4,6-dimethylpyrazolo[1,5-a]pyrazin-2-yl)-7-[(3R)-4-ethyl-3-methylpiperazin-1-yl]-4H-pyrido[1,2-a]pyrimidin-4-one]",< 0.1 µM,***** (a fold increase >1.65 is indicated by five stars (*****)),**** (an EC1.5x≤0.3 μM is indicated by four stars (****))
"Cc1nc2cc(-c3cc(=O)n4cc(N5C[C@H]6CNC[C@H]6C5)ccc4n3)ccc2s1 [Compound 349, 7-[(3aR,6aS)-hexahydropyrrolo[3,4-c]pyrrol-2(1H)-yl]-2-(2-methyl-1,3-benzothiazol-5-yl)-4H-pyrido[1,2-a]pyrimidin-4-one]",< 0.1 µM,*** (a fold increase between >1.35 and ≤1.5 is indicated by three stars (***)),** (an EC1.5× between >1 μM and ≤3 μM is indicated by two stars (**))
"Cc1cn2nc(-c3cc(=O)n4cc(C5=CCN(C6CC6)CC5)ccc4n3)cc2c(C)n1 [Compound 354, 7-(1-cyclopropyl-1,2,3,6-tetrahydropyridin-4-yl)-2-(4,6-dimethylpyrazolo[1,5-a]pyrazin-2-yl)-4H-pyrido[1,2-a]pyrimidin-4-one]",< 0.1 µM,**** (a fold increase between >1.5 and ≤1.65 is indicated by four stars (****)),*** (an EC1.5× between >0.3 μM and ≤1 μM is indicated by three stars (***))
"Cc1cn2nc(-c3cc(=O)n4cc(C5=CCN(C6COC6)CC5)ccc4n3)cc2c(C)n1 [Compound 357, 2-(4,6-dimethylpyrazolo[1,5-a]pyrazin-2-yl)-7-[1-(oxetan-3-yl)-1,2,3,6-tetrahydropyridin-4-yl]-4H-pyrido[1,2-a]pyrimidin-4-one]",0.1 to 0.3 µM,**** (a fold increase between >1.5 and ≤1.65 is indicated by four stars (****)),*** (an EC1.5× between >0.3 μM and ≤1 μM is indicated by three stars (***))
"CNC1CCN(c2cc(C)c3nc(-c4ccc(OC)c(OC)c4)cc(=O)n3c2)CC1 [Compound 358, 2-(3,4-dimethoxyphenyl)-9-methyl-7-[4-(methylamino)piperidin-1-yl]-4H-pyrido[1,2-a]pyrimidin-4-one]",< 0.1 µM,*** (a fold increase between >1.35 and ≤1.5 is indicated by three stars (***)),** (an EC1.5× between >1 μM and ≤3 μM is indicated by two stars (**))
CCNC1CCN(c2cc(C)c3nc(-c4ccc(OC)c(OC)c4)cc(=O)n3c2)CC1 [Compound 359],< 0.1 µM,*** (a fold increase between >1.35 and ≤1.5 is indicated by three stars (***)),** (an EC1.5× between >1 μM and ≤3 μM is indicated by two stars (**))
"COc1ccc(-c2cc(=O)n3cc(N4CCC(NC(C)C)CC4)ccc3n2)cc1OC [Compound 361, 2-(3,4-dimethoxyphenyl)-7-[4-(propan-2-ylamino)piperidin-1-yl]-4H-pyrido[1,2-a]pyrimidin-4-one]",0.1 to 0.3 µM,*** (a fold increase between >1.35 and ≤1.5 is indicated by three stars (***)),
"Cc1cn2cc(-c3ccc4nc(C5=CCNCC5)cc(=O)n4c3)cc(F)c2n1 [Compound 372, 7-(8-fluoro-2-methylimidazo[1,2-a]pyridin-6-yl)-2-(1,2,3,6-tetrahydropyridin-4-yl)-4H-pyrido[1,2-a]pyrimidin-4-one]",< 0.1 µM,***** (a fold increase >1.65 is indicated by five stars (*****)),**** (an EC1.5x≤0.3 μM is indicated by four stars (****))
"CCN1CC=C(c2cc(C)c3nc(-c4ccc(OC)c(OC)c4)cc(=O)n3c2)CC1 [Compound 388, 2-(3,4-dimethoxyphenyl)-7-(1-ethyl-1,2,3,6-tetrahydropyridin-4-yl)-9-methyl-4H-pyrido[1,2-a]pyrimidin-4-one]",< 0.1 µM,*** (a fold increase between >1.35 and ≤1.5 is indicated by three stars (***)),
"COc1ccc(-c2cc(=O)n3cc(N4CCN5CCC[C@@H]5C4)cc(C)c3n2)cc1OC [Compound 414, 2-(3,4-dimethoxyphenyl)-7-[(8aR)-hexahydropyrrolo[1,2-a]pyrazin-2(1H)-yl]-9-methyl-4H-pyrido[1,2-a]pyrimidin-4-one]",< 0.1 µM,***** (a fold increase >1.65 is indicated by five stars (*****)),*** (an EC1.5× between >0.3 μM and ≤1 μM is indicated by three stars (***))
"Cc1nc2ccc(-c3cc(=O)n4cc(C5=CCNCC5)ncc4n3)cc2o1.Cl [Compound 421, 2-(2-methyl-1,3-benzoxazol-6-yl)-7-(1,2,3,6-tetrahydropyridin-4-yl)-4H-pyrazino[1,2-a]pyrimidin-4-one hydrochloride (1:1)]",< 0.1 µM,*** (a fold increase between >1.35 and ≤1.5 is indicated by three stars (***)),
"Cc1cn2nc(-c3cc(=O)n4cc(C5CCNCC5)ccc4n3)cc2c(C)n1 [Compound 452, 2-(4,6-dimethylpyrazolo[1,5-a]pyrazin-2-yl)-7-(piperidin-4-yl)-4H-pyrido[1,2-a]pyrimidin-4-one]",< 0.1 µM,***** (a fold increase >1.65 is indicated by five stars (*****)),**** (an EC1.5x≤0.3 μM is indicated by four stars (****))
"Cn1ncc2cc(-c3cc(=O)n4cc(C5=CCN(CCO)CC5)ccc4n3)ccc21 [Compound 471, 7-[1-(2-hydroxyethyl)-1,2,3,6-tetrahydropyridin-4-yl]-2-(1-methyl-1H-indazol-5-yl)-4H-pyrido[1,2-a]pyrimidin-4-one]",< 0.1 µM,***** (a fold increase >1.65 is indicated by five stars (*****)),**** (an EC1.5x≤0.3 μM is indicated by four stars (****))
"Cc1cn2nc(-c3cc(=O)n4cc(C5=CCN(C)CC5)cc(C)c4n3)cc2c(C)n1 [Compound 481, 2-(4,6-dimethylpyrazolo[1,5-a]pyrazin-2-yl)-9-methyl-7-(1-methyl-1,2,3,6-tetrahydropyridin-4-yl)-4H-pyrido[1,2-a]pyrimidin-4-one]",< 0.1 µM,**** (a fold increase between >1.5 and ≤1.65 is indicated by four stars (****)),**** (an EC1.5x≤0.3 μM is indicated by four stars (****))
"CCN1CC=C(c2cc(C)c3nc(-c4cc5c(C)nc(C)cn5n4)cc(=O)n3c2)CC1 [Compound 482, 2-(4,6-dimethylpyrazolo[1,5-a]pyrazin-2-yl)-7-(1-ethyl-1,2,3,6-tetrahydropyridin-4-yl)-9-methyl-4H-pyrido[1,2-a]pyrimidin-4-one]",< 0.1 µM,*** (a fold increase between >1.35 and ≤1.5 is indicated by three stars (***)),* (An EC1.5× for Smn protein expression between >3 μM and ≤10 μM is indicated by one star (*))
"Cc1cn2nc(-c3cc(=O)n4cc(C5=CCN(C6CC6)CC5)cc(C)c4n3)cc2c(C)n1 [Compound 483, 7-(1-cyclopropyl-1,2,3,6-tetrahydropyridin-4-yl)-2-(4,6-dimethylpyrazolo[1,5-a]pyrazin-2-yl)-9-methyl-4H-pyrido[1,2-a]pyrimidin-4-one]",< 0.1 µM,** (a fold increase between >1.2 and ≤1.35 is indicated by two stars (**)),
"CCN1CC=C(c2ccc3nc(-c4cc5cnc(C)cn5n4)cc(=O)n3c2)CC1 [Compound 485, 7-(1-ethyl-1,2,3,6-tetrahydropyridin-4-yl)-2-(6-methylpyrazolo[1,5-a]pyrazin-2-yl)-4H-pyrido[1,2-a]pyrimidin-4-one]",< 0.1 µM,***** (a fold increase >1.65 is indicated by five stars (*****)),**** (an EC1.5x≤0.3 μM is indicated by four stars (****))
